Usually IC50 stands for the concentration that inhibits the measured activity by half. As usually defined, the Ki is the dissociation constant of the complex between target and ligand, obtained from inhibition or displacement.

Read-outs that look alike come from different tables or passages of the source.

The subject of assay [1] is human LDL. Kind of assay: Conjugated diene formation on Cu2+ induced LDL oxidation. Format: biochemical. The settings on record: at 10 μM of compound; 234 nm, followed for 180 min. As to the method:
The formation of conjugated dienes from oxLDL was assessed by the method. The conjugated diene formation occurred in the clear bottom 96-well plate. The mixture of each well containing 230 μL of 550 μg/mL LDL in the buffer (10 mM PBS, pH 7.4) and 10 μL of 250 μM CuSO4 (final concentration: 10 μM) in the presence or absence of isoflavones or probucol as a positive control (final concentration: 10 μM) were incubated at 37 °C for 4 h. Then, the reaction was screened at 234 nm for 180 min every 5 min, continuously, incubating in the SpectraMax M3 multi-mode microplate reader. In the observed absorbance spectra, the lag time of tested samples was obtained as the endpoint indicated in the lag phase.

Assay [2] has as its target T1, Bovine milk xanthine oxidase (XO, EC 1.17.3.2) (Bos taurus, UniProt P80457).
T1 construct: Xanthine oxidase from bovine milk (EC 1.17.3.2); purchased Sigma Aldrich Co., (St. Louis, MO, USA); host or cells: bovine milk
Kind of assay: Xanthine oxidase activity (uric acid formation at 295 nm). The assay is classed as biochemical. The conditions noted are these: sample concentration which leads to 50% xanthine oxidase activity loss; xanthine substrate, pH 7.5, 37 °C; read-out: IC50, xanthine oxidase inhibition (converted). The procedure: The half-maximal inhibitory concentrations (IC50) were calculated according to the enzyme inhibition rate (%) derived from the change of uric acid formation in comparison with the concentration of inhibitors. The inhibition rate derived from the non-linear regression fitting to Equation (1). Inhibition rate (%) = 100 × [(rate of control reaction − rate of inhibitor reaction)/rate of control reaction](1)

The target of assay [3] is T1, Bovine milk xanthine oxidase (XO, EC 1.17.3.2). The description is as above. The assay is classed as biochemical. The settings on record: initial velocity versus enzyme amount, 0~12.5 μM of compound.
For assay [4], the system named is human LDL. Kind of assay: TBARS assay of Cu2+ induced LDL oxidation. Format: biochemical. As to the method:
Thiobarbituric acid reactive substances (TBARS) assay was carried out according to the previous method with minor modifications. The absorbance of a product of a reaction between thiobarbituric acid (TBA) and malondialdehyde (MDA) was measured at 540 nm. First, 220 μL of 500 μg/mL LDL in a buffer (10 mM PBS, pH 7.4), 10 μL of […], and 10 μL of different concentrations from 0 to 3 mM of isoflavones or probucol as a positive control were mixed in 1.5 mL Eppendorf tube and incubated at 37 °C for 4 h. After incubation, 100 μL of trichloroacetic acid (TCA) and 100 μL of 0.67% thiobarbituric acid (TBA)/0.05 N NaOH were added to the reaction mixture and heated in the water bath at 100 °C for 15 min. After heating, the mixture was cooled on the ice and centrifuged for 15 min at 3000 rpm. The absorbance of supernatant was measured and the IC50 values were calculated from the inhibition rate derived from Equation (1).

Assay [5] has as its target T1, Bovine milk xanthine oxidase (XO, EC 1.17.3.2). Kind of assay: Xanthine oxidase inhibition kinetics (Lineweaver–Burk and Dixon plots). Format: biochemical. The procedure: The inhibition mode and inhibitory constants were determined by Lineweaver–Burk and Dixon plots. For obtaining double reciprocal plots, was measured the reaction absorbance of the enzyme, inhibited by different concentrations of inhibitors, with three concentrations of xanthine (15, 30, and 60 μM) at 295 nm and 37 °C. The corresponding kinetic parameters, namely the Michaelis-Menten constant (Km), maximal velocity (Vmax), inhibitory constant (Ki), and dissociation constant of a binding site for the inhibitor to either free enzyme or the enzyme-substrate complex (KI and KIS) were determined by Equations (2)–(4).

Assay [6] has as its target T2, xanthine oxidase (Bos taurus, UniProt P80457).
T2 construct: Xanthine oxidase from bovine milk (EC 1.17.3.2); purchased Sigma Aldrich Co., (St. Louis, MO, USA); host or cells: bovine milk
As to the kind of experiment: Fluorescence quenching of xanthine oxidase (binding affinity). The arrangement: species or system bovine. The procedure: The binding affinity between xanthine oxidase and isolated isoflavones were measured by fluorescence quenching method. For the fluorescence quenching experiments, the Trp intensities of xanthine oxidase were monitored wavelength of emission from 300 to 400 nm and excitation of 290 nm. The reaction mixture containing 180 μL of 200 mM sodium pyrophosphate/HCl (pH 7.5), 10 μL of isolated isoflavones diluted in DMSO (3.125, 6.25, 12.5, 25.0, and 50.0 μM), and 10 μL of 1 unit/mL xanthine oxidase was placed in black/flat bottom 96-well microplates. […] The quenching parameters such as the Stern–Volmer constant (KSV), binding constant (KA), and the number of binding sites (n) were determined by the Equations (5) and (6). F0 − F = 1 + KSV [Q](5) Log [(F0 − F)/F] = log KA + n log [Q]f(6)

T1 sequence (P80457 whole entry): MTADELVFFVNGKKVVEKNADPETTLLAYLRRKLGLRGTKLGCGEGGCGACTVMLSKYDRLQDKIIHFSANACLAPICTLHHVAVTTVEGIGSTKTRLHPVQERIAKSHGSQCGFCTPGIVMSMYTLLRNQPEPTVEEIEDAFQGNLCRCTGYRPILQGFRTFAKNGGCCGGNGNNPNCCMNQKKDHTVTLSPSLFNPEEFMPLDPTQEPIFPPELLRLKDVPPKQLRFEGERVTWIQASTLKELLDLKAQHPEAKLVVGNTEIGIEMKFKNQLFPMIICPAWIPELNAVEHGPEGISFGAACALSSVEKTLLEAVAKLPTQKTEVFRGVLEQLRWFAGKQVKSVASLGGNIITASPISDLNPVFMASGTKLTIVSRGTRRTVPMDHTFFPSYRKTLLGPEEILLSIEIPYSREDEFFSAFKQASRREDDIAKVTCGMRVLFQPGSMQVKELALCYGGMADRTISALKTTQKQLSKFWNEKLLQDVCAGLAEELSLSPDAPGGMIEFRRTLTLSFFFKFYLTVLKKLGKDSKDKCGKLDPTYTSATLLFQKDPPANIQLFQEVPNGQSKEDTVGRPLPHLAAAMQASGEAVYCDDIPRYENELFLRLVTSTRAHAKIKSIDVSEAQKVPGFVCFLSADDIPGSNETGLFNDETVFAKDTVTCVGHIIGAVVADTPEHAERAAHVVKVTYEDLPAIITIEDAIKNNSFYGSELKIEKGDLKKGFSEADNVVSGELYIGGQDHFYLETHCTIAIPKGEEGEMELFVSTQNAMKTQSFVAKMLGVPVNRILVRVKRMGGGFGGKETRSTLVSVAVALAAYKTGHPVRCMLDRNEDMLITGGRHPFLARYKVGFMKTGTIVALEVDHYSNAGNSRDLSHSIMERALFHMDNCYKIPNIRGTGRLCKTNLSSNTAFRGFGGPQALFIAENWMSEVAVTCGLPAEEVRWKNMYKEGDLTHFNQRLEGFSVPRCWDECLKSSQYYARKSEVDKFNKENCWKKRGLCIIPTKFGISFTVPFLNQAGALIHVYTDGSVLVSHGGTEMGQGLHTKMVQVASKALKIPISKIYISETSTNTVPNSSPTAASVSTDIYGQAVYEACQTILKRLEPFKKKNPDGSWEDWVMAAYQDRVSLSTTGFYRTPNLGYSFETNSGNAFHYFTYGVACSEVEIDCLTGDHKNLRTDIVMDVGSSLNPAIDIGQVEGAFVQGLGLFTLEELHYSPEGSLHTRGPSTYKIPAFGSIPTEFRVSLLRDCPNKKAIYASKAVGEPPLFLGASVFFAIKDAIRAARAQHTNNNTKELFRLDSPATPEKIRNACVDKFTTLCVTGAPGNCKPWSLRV
T2 sequence (P80457 whole entry): as above

With `CC(C)=CCc1c(O)c(CC=C(C)C)c2occ(-c3ccc(O)c(O)c3)c(=O)c2c1O` [Compound 3, 6,8-diprenylorobol], in assay [1], the “Lag Time of conjugated diene formation” value is recorded as over 180 min. For the same compound, the IC50 was 7.8 µM in assay [2] and 1.9 µM in assay [4] (LDL 500 μg/mL, 10 μM Cu2+, 37 °C, 4 h). The “Reversibility of XO inhibition” value in assay [3] is on record as “reversible”. The “Inhibition Rate” value in assay [4] (at 10 μM of compound, oxidized LDL induced by Cu2+) is reported as 98.6%. Also, the Ki is 5.5 µM in assay [5] (Dixon plots, read-out: Ki (inhibition constant)) and 5.7 µM in assay [5] (binding of inhibitor to free enzyme, secondary plot of slope, read-out: KI). In addition, the “Inhibition Mode” value in assay [5] (Lineweaver–Burk plots, xanthine 15, 30, 60 μM) was “Mixed type I”. Moreover, the KIS in assay [5] (binding of inhibitor to enzyme-substrate complex, secondary plot of intercept) was found to be 15.5 µM. Also, the “Stern–Volmer constant KSV” value in assay [6] (excitation 290 nm, emission 300-400 nm) came to 125300 L/mol. In assay [6] (excitation 290 nm, emission 300-400 nm, read-out: binding constant KA (converted)), the Kd was 1.11 µM. In assay [6] (fluorescence quenching), the “number of binding sites n” value was found to be 1.4392.

Source of the values: PMC7411605, “Xanthine Oxidase Inhibition and Anti-LDL Oxidation by Prenylated Isoflavones from Flemingia philippinensis Root” (Molecules, 2020).
